Data reported in ChEMBL document CHEMBL1795321, “Synthesis and in vitro evaluation of ambrisentan analogues as potential endothelin receptor antagonists” (Bioorg Med Chem Lett, 2011).
The source made the active and inactive calls. The rule behind the calls is not given here.

Molecular target: T1, Endothelin receptor type A (Oryctolagus cuniculus) (UniProt A5A8K3)
T1 sequence (whole entry): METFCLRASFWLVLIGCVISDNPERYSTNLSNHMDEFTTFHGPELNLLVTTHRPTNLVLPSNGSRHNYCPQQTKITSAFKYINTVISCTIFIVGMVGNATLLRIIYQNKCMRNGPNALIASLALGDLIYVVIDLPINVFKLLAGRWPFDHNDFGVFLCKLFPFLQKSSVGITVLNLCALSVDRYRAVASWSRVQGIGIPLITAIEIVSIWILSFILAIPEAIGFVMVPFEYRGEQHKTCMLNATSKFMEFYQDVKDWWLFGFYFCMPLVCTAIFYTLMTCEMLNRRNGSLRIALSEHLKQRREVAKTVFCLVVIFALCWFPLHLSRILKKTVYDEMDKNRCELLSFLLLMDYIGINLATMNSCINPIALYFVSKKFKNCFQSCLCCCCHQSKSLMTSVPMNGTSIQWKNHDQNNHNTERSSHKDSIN
Assay: Inhibition of endothelin A receptor in New Zealand white rabbit aortic rings assessed as inhibition of endothelin-1-induced vascular contraction at 10^-6 M

SMILES	inhibition
CCCC(=O)OCC(c1ccccc1)(c1ccccc1)C(Oc1nc(C)cc(C)n1)C(=O)O (stereo not drawn)	1.11%
Cc1cc(C)nc(OC(C(=O)O)C(COC(=O)OC(C)(C)C)(c2ccccc2)c2ccccc2)n1 (stereo not drawn)	inactive
Cc1cc(C)nc(OC(C(=O)O)C(COC(=O)OCC(C)C)(c2ccccc2)c2ccccc2)n1 (stereo not drawn)	13.7%
Cc1cc(C)nc(OC(C(=O)O)C(COCc2ccccc2)(c2ccccc2)c2ccccc2)n1 (stereo not drawn)	inactive
Cc1cc(C)nc(OC(C(=O)O)C(COC(=O)c2cccnc2)(c2ccccc2)c2ccccc2)n1 (stereo not drawn)	7.82%
Cc1cc(C)nc(OC(C(=O)O)C(COC(=O)CCCC(=O)O)(c2ccccc2)c2ccccc2)n1 (stereo not drawn)	3.47%
Cc1cc(C)nc(OC(C(=O)O)C(C#N)(c2ccccc2)c2ccccc2)n1 (racemic)	42.2%
Cc1cc(C)nc(OC(C(=O)O)C(COC(=O)c2ccccc2)(c2ccccc2)c2ccccc2)n1 (stereo not drawn)	8.09%
Cc1cccc(C(=O)OCC(c2ccccc2)(c2ccccc2)C(Oc2nc(C)cc(C)n2)C(=O)O)c1 (stereo not drawn)	inactive
COCC(c1ccccc1)(c1ccccc1)C(Oc1nc(C)cc(C)n1)C(=O)O (stereo not drawn)	inactive
CC(=O)OCC(c1ccccc1)(c1ccccc1)C(Oc1nc(C)cc(C)n1)C(=O)O (stereo not drawn)	9.64%
Cc1cc(C)nc(OC(C(=O)O)C(COC(=O)C(C)(C)C)(c2ccccc2)c2ccccc2)n1 (stereo not drawn)	inactive
COC(c1ccccc1)(c1ccccc1)[C@H](Oc1nc(C)cc(C)n1)C(=O)O	43.2%
CCCCOCC(c1ccccc1)(c1ccccc1)C(Oc1nc(C)cc(C)n1)C(=O)O (stereo not drawn)	15.1%
Cc1cc(C)nc(OC(C(=O)O)C(COC(=O)CCC(=O)O)(c2ccccc2)c2ccccc2)n1 (stereo not drawn)	inactive
Cc1cc(C)nc(OC(C(=O)O)C(COC(=O)OC(C)C)(c2ccccc2)c2ccccc2)n1 (stereo not drawn)	22%
CCCOCC(c1ccccc1)(c1ccccc1)C(Oc1nc(C)cc(C)n1)C(=O)O (stereo not drawn)	inactive
CCOC(=O)OCC(c1ccccc1)(c1ccccc1)C(Oc1nc(C)cc(C)n1)C(=O)O (stereo not drawn)	15.5%
Cc1ccc(S(=O)(=O)OCC(c2ccccc2)(c2ccccc2)C(Oc2nc(C)cc(C)n2)C(=O)O)cc1 (stereo not drawn)	inactive
Cc1cc(C)nc(OC(C(=O)O)C(COC(=O)CCc2ccccc2)(c2ccccc2)c2ccccc2)n1 (stereo not drawn)	inactive
Cc1cc(C)nc(OC(C(=O)O)C(Cc2ccccc2)(c2ccccc2)c2ccccc2)n1 (stereo not drawn)	11.8%
CCCCC(=O)OCC(c1ccccc1)(c1ccccc1)C(Oc1nc(C)cc(C)n1)C(=O)O (stereo not drawn)	5.88%

The next lines start with the values.

inhibition	SMILES
14.3%	Cc1cc(C)nc(OC2C(=O)OCC2(c2ccccc2)c2ccccc2)n1 (stereo not drawn)
5.61%	CCCCCCCC(=O)OCC(c1ccccc1)(c1ccccc1)C(Oc1nc(C)cc(C)n1)C(=O)O (stereo not drawn)
inactive	Cc1cc(C)nc(OC(C(=O)OCc2ccccc2)C(CO)(c2ccccc2)c2ccccc2)n1 (stereo not drawn)
3.4%	COC(=O)OCC(c1ccccc1)(c1ccccc1)C(Oc1nc(C)cc(C)n1)C(=O)O (stereo not drawn)
inactive	CCC(C)(C)C(=O)OCC(c1ccccc1)(c1ccccc1)C(Oc1nc(C)cc(C)n1)C(=O)O (stereo not drawn)
inactive	Cc1cc(C)nc(OC(C(=O)O)C(COC(=O)N(C)C)(c2ccccc2)c2ccccc2)n1 (stereo not drawn)
inactive	CCCCCC(=O)OCC(c1ccccc1)(c1ccccc1)C(Oc1nc(C)cc(C)n1)C(=O)O (stereo not drawn)
inactive	COc1ccc(C(=O)OCC(c2ccccc2)(c2ccccc2)C(Oc2nc(C)cc(C)n2)C(=O)O)cc1 (stereo not drawn)
21.8%	Cc1cc(C)nc(OC(C(=O)O)C(COC(=O)CC(C)C)(c2ccccc2)c2ccccc2)n1 (stereo not drawn)
22.5%	COc1ccccc1Oc1c(NS(=O)(=O)c2ccc(C(C)(C)C)cc2)nc(-c2ncccn2)nc1OCCO
inactive	Cc1cc(C)nc(OC(C(=O)O)C(COC(=O)Cc2ccccc2)(c2ccccc2)c2ccccc2)n1 (stereo not drawn)
21.7%	CCC(=O)OCC(c1ccccc1)(c1ccccc1)C(Oc1nc(C)cc(C)n1)C(=O)O (stereo not drawn)
13.2%	Cc1cc(C)nc(OC(C(=O)O)C(COC(=O)c2ccncc2)(c2ccccc2)c2ccccc2)n1 (stereo not drawn)
20.6%	CCOCC(c1ccccc1)(c1ccccc1)C(Oc1nc(C)cc(C)n1)C(=O)O (stereo not drawn)
23.2%	Cc1cc(C)nc(OC(C(=O)O)C(CO)(c2ccccc2)c2ccccc2)n1 (stereo not drawn)
23.4%	C=CCOCC(c1ccccc1)(c1ccccc1)C(Oc1nc(C)cc(C)n1)C(=O)O (stereo not drawn)
